# From a melting point compilation (Tetko et al.; mined from patent text by program, amines drawn as free bases though some values may be those of a salt)
row,SMILES,melting point
1,O=C(O)CCc1ccc(OCCSCCO)cc1,64 to 65 °C
2,CNc1nc(-c2cccc(NC(=O)c3cccc(OCc4ccccc4)c3)c2)c2cc(OC)c(OC)cc2n1,110 to 112 °C
3,O=C(N[C@@H](Cc1c[nH]c2ccccc12)C(=O)O)c1ccc(Cl)cc1,100 to 102 °C
4,Cc1ccc(NC(=O)c2ccc3c(c2)C(=O)N(c2c(Cl)cccc2Cl)C3=O)cc1C,238 to 240 °C
5,Nc1ccc(Sc2ncccn2)cc1,124 to 126 °C
6,COC(=O)[C@@H]1[C@H](c2ccccc2)CC(=O)N1C,100 °C
7,CCOC(C)O[C@H]1C(=O)N(C(=S)Nc2ccccc2)[C@H]1c1ccccc1 (stereo not given in full),108 to 112 °C
8,CCc1c(OCc2ccccc2)nc(OCc2ccccc2)nc1C(C#N)c1cc(C)cc(C#N)c1 (stereo not given),139 to 141 °C
9,COc1cc(N2CCN(C[C@H](C)O)CC2)ccc1Nc1ncc2ccc(-c3ccccc3S(C)(=O)=O)n2n1,98 to 100 °C
10,COc1ncccc1NC(=NC#N)NC(NC(=O)c1cccc(Cl)c1)C(C)(Cl)Cl (stereo not given),115 to 116 °C
11,CCn1c(C)nc(N2CCc3ccccc3CC2)c([N+](=O)[O-])c1=O,145 to 147 °C
12,Clc1ncnc(Cl)c1I,135 to 136 °C
13,O=C(Nc1cccc(OC(F)(F)F)c1)NC1N=C(c2ccccc2F)c2ccccc2N(CC(=O)N2CC3CCC(CC3)C2)C1=O (racemic),156 to 164 °C
14,COCc1cc2c(N)cccc2cn1,105 °C
15,Cn1c(=O)c2c(ncn2CCOC(=O)C(C)(C)Oc2ccc(Cl)cc2)n(C)c1=O,131 to 132 °C
16,Cc1ccccc1CN1CCN(C)CC1C1=NCCN1 (stereo not given),156 to 158 °C
17,CNC(=O)NS(=O)(=O)c1cc(CCNC(=O)c2cc(C(C)(C)C)ccc2OC)ccc1OC,209 to 212 °C
18,Cc1cc(-c2noc(C(F)F)n2)cc(C)c1OCCCc1n[nH]c(=O)s1,110 to 111 °C
19,COC(=O)C1=C(C)NC(C)=C(C(=O)CS(=O)(=O)N(C)C)C1c1cccc([N+](=O)[O-])c1 (stereo not given),154 to 157 °C
20,O=C1CSCc2cc(Cl)ccc21,79.5 to 82 °C
21,COc1cc2c(c3c1OC(C)(C)C3)C(c1cccc(-c3ccc(NC(=O)C(F)(F)F)cc3)c1)=NC(C)(C)C2,149 to 154 °C

row,SMILES,melting point
1,CCOC(=O)c1c(C(F)(F)F)nc(C(F)(F)Cl)c(C(=O)OC)c1Nc1ccccc1,91 to 92 °C
2,CCNC(=C[N+](=O)[O-])NCCSCc1nccs1,115 to 116 °C
3,CC(=O)Nc1ccc(C(C)=O)c(C)n1,201 to 202 °C
4,CNC(=O)Nc1ccc(S(N)(=O)=O)cc1,211 to 213 °C
5,CCOC(=O)c1ccc(OCC2CCN(c3ccc(OC)nn3)CC2)cc1,147 °C
6,CC(C)c1nc(CCl)n(C)c1Sc1cc(Cl)cc(Cl)c1,110 to 111 °C
7,CN(C)c1ccc(Cl)cc1[N+](=O)[O-],54 to 55 °C
8,CN1C(=S)N(c2ccc(Cl)c(Cl)c2)C(=N)C1(C)C,133 °C
9,COc1ccc(S(=O)(=O)C(CC(=O)NO)Cc2ccccc2)cc1 (stereo not given),118 to 120 °C
10,CS(=O)(=O)N[C@H]1CC[C@H](CCN2CCC(c3cccc4c3CCO4)CC2)CC1,152 °C
11,CCOC(=O)Cc1ccc(C(=O)c2ccc(C#N)cc2)n1C,117 to 120 °C
12,CCC1(F)CN(C2CCCC2)c2nc(Nc3ccc(C(=O)NC4CCN(C)CC4)cc3OC)ncc2N(C)C1=O (stereo not given),149 to 153 °C
13,COC(=O)c1snc(-c2ccc(C#N)cc2)c1C(=O)OC,134 to 135 °C
14,CC1CN(c2c(F)c(N)c3c(=O)c(C(=O)O)cn(C4CC4)c3c2F)CCN1 (stereo not given),251 to 253 °C
15,CSc1cc(=O)c2cc(OC(=O)OC(C)(C)C)c(OC(=O)OC(C)(C)C)cc2s1,110 to 111 °C
16,O=[N+]([O-])c1ccc(OCc2ccccn2)cc1,116 to 117 °C
17,CC(C)(C)OC(=O)NC1CCN(c2nc3c(cc2F)c(=O)n(N)c(=O)n3C2CC2)C1 (stereo not given),108 to 110 °C
18,Cc1nn(-c2ccccn2)c2ncc(C(=O)NC3CCCCC3)c(O)c12,> 300 °C
19,CC(=O)SCC(C(=O)NC(CC(=O)O)Cc1ccccc1)C(F)(F)F (stereo not given),171 to 172 °C
20,CCN1C(=O)c2cccc3c(S(C)(=O)=O)ccc1c23,199 to 203 °C
21,CCOC(=O)c1[nH]c(C)cc1N,85 to 87 °C

row,SMILES,melting point
1,C=CCOC(=O)C1N2C(=O)C(NC(=O)CC(=O)OCC)C2S(=O)(=O)C1(C)C (stereo not given),114 to 115 °C
2,CC(=O)Nc1nc(N(C(C)=O)C(C)=O)c(CC=O)c(=O)[nH]1,169 to 170 °C
3,CCOC(=O)CSc1cc(Cl)nc(Nc2cccc(C)c2C)n1,114 to 116 °C
4,CN(O)C(=O)C1CCC(C2CCCCC2)CC1 (stereo not given),89 to 90 °C
5,Nc1cccc(Oc2cccc(Oc3cccc(N)c3)c2)c1,105 to 107 °C
6,O=C(NCCC(F)=C(F)F)N(c1ccccc1)c1ccccc1,116 to 117 °C
7,CCCCCCCCCC(=O)NCCCCCC(=O)OO,63 to 67 °C
8,CN1c2ccc(-c3ccccc3)cc2S(=O)(=O)c2cc(-c3ccccc3)ccc21,242 to 245 °C
9,CCOc1ccc(C23CC2CN(C=O)C3)cc1 (stereo not given),48 to 51 °C
10,OC(CNCc1ccccc1)C(c1ccccc1)c1ccccc1 (stereo not given),123 to 124 °C
11,CC(C)Oc1ccccc1Oc1ccc(NC(=O)N2CCc3ccccc3CC2)cn1,149 to 152 °C
12,CC(=O)CCc1cccc(C(N)=O)c1,122 to 125 °C
13,COC(=O)CC[C@@H](NC(=O)[C@@H](NC(=O)OC(C)(C)C)[C@@H](C)OCc1ccccc1)C(N)=O,131 to 132 °C
14,Cc1cc(-n2cncn2)c2cccc(OCc3c(Cl)ccc(S(=O)(=O)N4CCC[C@H]4C(=O)NCC4CCN(C(=O)OC(C)(C)C)CC4)c3Cl)c2n1,94 °C
15,CCN1CCN(C(=O)c2ccc(-c3cc(-c4c(-c5cccc(C)n5)nc5c(C)cccn45)ccn3)cc2)CC1,212 °C
16,COc1ccc(N2CCCn3c2nc2c(Cl)ccc(C(OC)C(F)(F)F)c23)c(C)n1 (stereo not given),144 to 146 °C
17,COc1c(OCC(F)(F)F)ccnc1CO,107 to 108 °C
18,O=C1NC(C(=O)NCCCO[N+](=O)[O-])CS1 (stereo not given),83 to 85 °C
19,N#Cc1cnn(-c2ccc(OC(F)(F)F)cc2Cl)c1Br,83 °C
20,O=CN1CCN(C[C@H](O)COc2cccc3[nH]ccc23)CC1,106 to 107 °C
21,Cc1c(C)c2c(c(C)c1O)C(=O)CC(CCC(C)CCCC(C)C)(COc1ccc([N+](=O)[O-])cc1)O2 (stereo not given),121 to 123 °C

# Second part, the compound after the results:
row,melting point,SMILES
1,142 to 143 °C,Cc1ccc(-c2cccc(/C=C/C(=O)Nc3ccc(CN4CCCCC4CCO)cc3)c2)cc1 (stereo not given)
2,143 to 146 °C,CC1COCC(C)N1C(=O)N1Cc2c(-c3noc(C4CC4)n3)ncn2-c2ccc(F)cc21 (stereo not given)
3,127 °C,COC(=O)CCc1cc2nc(Cl)ccc2n1S(=O)(=O)c1cc(OC)ccc1OC
4,191 to 193 °C,CCC1c2cccn2-c2ccc(Br)cc2N1S(=O)(=O)c1ccc(O)c(C)c1 (stereo not given)
5,109 to 111 °C,C=C(C)C(=O)OCCCCCCN(C)c1ccc(C=Cc2ccc([N+](=O)[O-])cc2)cc1
6,77.5 to 79 °C,Fc1ccc2c(c1)Oc1ccccc1S2
7,166 to 168 °C,COc1cc(C=CC(=O)c2ccc(-c3cccs3)s2)ccc1O
8,70 to 72 °C,CC(=O)c1ccc(-c2ccc(F)cc2Br)cc1
9,174 °C,CCN1c2ncc(CCc3ccncc3)cc2C(=O)N(C)c2ccc(I)nc21
10,128 to 129 °C,COC(=O)c1ccc2c(c1)C(=O)c1ccccc1CO2
11,166 to 167 °C,CN(C)C(=O)CCc1cc(-c2ccncc2)sc1-c1ccncc1
12,131 to 132 °C,Nc1ccc2sc3ccc(F)cc3c2c1
13,243 to 245 °C,N#Cc1ccc(Cn2cncn2)c(-c2ccc(O)c(Cl)c2)c1
14,128 to 129 °C,Fc1ccc(F)c(C(Sc2ccc(Cl)cc2)c2cc(Cl)ncc2Cl)c1 (stereo not given)
15,197 to 198 °C,COc1ccc(C(=O)n2c3c(c4cc(F)ccc42)CC(C(=O)O)CC3)cc1 (stereo not given)
16,128 to 129 °C,O=C1c2c(O)cccc2C(=CCc2ccccc2)c2cccc(O)c21
17,217 °C,O=C(Nc1ncc(C(F)(F)F)o1)C1c2ccccc2Oc2ccc(F)cc21 (racemic)
18,161 to 162 °C,CCN1C(=O)c2cccnc2N(C)c2nc(-c3ccc[nH]3)ccc21
19,180 to 182 °C,CSc1nc(=O)cc(N)n1-c1ccc(Cl)cc1

row,melting point,SMILES
1,215 to 217 °C,N#Cc1cccc(-n2c(=O)c(N3CCCCCC3)cc3cccnc32)c1
2,266 to 267 °C,CC(=O)Nc1nc2c(s1)-c1nn(C(=O)c3ccccc3)cc1CC2
3,196 °C,CCOC(=O)c1nc2scc(COC(=O)c3ccc(CO)cc3)c2c(=O)[nH]1
4,163 to 164 °C,O=C(O)c1cc(OCc2ccccc2)nn1-c1ccccc1
5,> 260 °C,Cc1[nH]c(=O)c(-c2csc(-c3ccnc(NCC4CC4)c3)n2)cc1C(=O)NCC1CC1
6,119 to 120 °C,C=CCNC(=O)N1CCC1c1ccccc1F (stereo not given)
7,257 to 260 °C,CC(Nc1ccccc1O)=C1C(=O)OC(=O)C(C(=O)C=Cc2ccc(O)cc2)=C1O
8,173 to 174 °C,C=C1c2ccccc2C(=O)N1c1ccncc1
9,170 °C,Cc1ccc2c(N)nc(-c3cccc4ccccc34)cc2c1
10,210 to 216 °C,CC1(N)CN(c2cc3c(cc2F)c(=O)c(C(=O)O)cn3-c2ccc(F)cc2F)C1
11,184 to 186 °C,OC1CCOc2ccc(C=Cc3nc4cc(F)ccc4s3)cc21 (stereo not given)
12,147 to 148 °C,Fc1cccc(CCc2nnc(-c3ccnc4[nH]ccc34)o2)c1
13,56 °C,Brc1ccc(SCc2ncon2)cc1
14,> 220 °C,O=C(O)Cc1ccc(NC(=O)C=C2CC(C(=O)O)Nc3cc(Cl)cc(Cl)c32)cc1 (racemic)
15,110 to 120 °C,CCc1ccc2c(c1)OC1(O)c3cccc([N+](=O)[O-])c3C(=O)C21O (stereo not given)
16,116 to 118 °C,O=C(NCCc1cccc2ccc(OC3CCCCC3)cc12)C1CCC1
17,176 to 178 °C,Cc1ccc(S(=O)(=O)N(C)c2ccc(Cl)cc2C(N)=O)cc1
18,243 to 246 °C,Cc1ccc(Sc2nc(C(N)=O)nc3c(C)csc23)cc1
